19 molecules from US20180305332A1, “Bispiperidinyl Derivatives as Liver X Receptor Beta Agonists, Compositions, and Their Use” (Merck Sharp & Dohme Corp., priority 2015, published 2018) can be followed below.

The structures appear in SMILES notation.

The target of test [1] is T1, GST tagged LXRbeta LBD (ligand binding domain) (Homo sapiens, UniProt P55055).
T1 construct: purchased Invitrogen pv4658.pps
T1 sequence (P55055 222-460 limits assumed): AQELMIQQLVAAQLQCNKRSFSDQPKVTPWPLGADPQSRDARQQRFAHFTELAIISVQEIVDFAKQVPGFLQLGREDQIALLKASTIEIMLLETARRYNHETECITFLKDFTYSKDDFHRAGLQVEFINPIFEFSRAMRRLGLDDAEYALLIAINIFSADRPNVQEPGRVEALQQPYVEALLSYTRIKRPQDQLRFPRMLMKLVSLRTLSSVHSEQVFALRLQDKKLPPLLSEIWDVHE
The test can be described thus: LanthaScreen TR-FRET Liver X Receptor Coactivator Assay, LXR beta-LBD. The test is classed as biochemical. The settings on record: relative to reference T0901317; for EC50: Inflection Point (potency), co-activator recruitment, read-out: LXR beta IP; for Emax / LXR beta act @ max dose (%): activity at max dose (efficacy); for Emax: read-out: LXR beta act @ max dose (%). The procedure, abridged:
(§1)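 GST-tagged human LXRα or LXRβ LBD was mixed with test compound, then fluorescein-labelled coactivator peptide and terbium anti-GST antibody added. After room-temperature incubation, TR-FRET was read. Inflection point and Emax expressed relative to reference dual agonist T0901317.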
(In general: Time-resolved FRET reads energy transfer from a long-lived donor to a nearby acceptor.)

Test [2] has as its target T2, GST tagged LXRalpha LBD (ligand binding domain) (Homo sapiens, UniProt Q13133).
T2 construct: purchased Invitrogen pv4655
T2 sequence (Q13133 209-447 limits assumed): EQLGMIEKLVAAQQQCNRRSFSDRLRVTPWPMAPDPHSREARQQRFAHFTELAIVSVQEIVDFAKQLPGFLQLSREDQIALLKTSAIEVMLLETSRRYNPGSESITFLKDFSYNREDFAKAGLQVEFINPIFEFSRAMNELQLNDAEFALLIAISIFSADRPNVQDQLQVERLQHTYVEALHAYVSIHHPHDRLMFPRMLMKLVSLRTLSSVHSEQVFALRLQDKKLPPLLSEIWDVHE
The test can be described thus: LanthaScreen TR-FRET Liver X Receptor Coactivator Assay, LXR alpha-LBD. The settings on record: relative to reference T0901317; for LXR alpha IP (nM) / EC50: Inflection Point (potency), co-activator recruitment; for Emax / LXR alpha act @ max dose (%): activity at max dose (efficacy); for Emax: read-out: LXR alpha act @ max dose (%); for EC50: read-out: LXR alpha IP. In kind it is biochemical. The procedure, abridged: as §1

As for `COc1cccc(C2(C(=O)N3CCC(C4CCN(c5ccc(C(=O)N(C)C)c(Cl)c5)CC4)CC3)CCCC2)c1` [Example A-78, 2-chloro-4-(1′-{[1-(3-methoxyphenyl)cyclopentyl]carbonyl}-4,4′-bipiperidin-1-yl)-N,N-dimethylbenzamide], in test [1], the EC50 was 210 nM and the Emax was 81%. In test [2], the “LXR alpha IP (nM)” value is listed as “NO IP” and the Emax was found to be 15%.
Consider `CN(C)C(=O)c1ccc(N2CCC(C3CCN(C(=O)C(O)(C4CC4)C(F)(F)F)CC3)CC2)cc1Cl` (single isomer, unassigned) [Example A-9, 2-chloro-4-[1′-(2-cyclopropyl-3,3,3-trifluoro-2-hydroxypropanoyl)-4,4′-bipiperidin-1-yl]-N,N-dimethylbenzamide], for which, in test [1], the EC50 turned out to be 116 nM and the “LXR beta act @ max dose (%)” value amounted to 110%. Further, in test [2], the EC50 stood at 1200 nM and the “LXR alpha act @ max dose (%)” value is listed as 56%.
With `CN(C)C(=O)c1ccc(N2CCC(C3CCN(C(=O)c4c(F)cccc4F)CC3)CC2)nc1Cl` [Example B-8, 2-chloro-6-{1′-[(2,6-difluorophenyl)carbonyl]-4,4′-bipiperidin-1-yl}-N,N-dimethylpyridine-3-carboxamide], in test [1], the EC50 stood at 71 nM and the Emax is 95%. Moreover, in test [2], the EC50 is 885 nM and the Emax is 38%.
The matching figures for `CC(C)S(=O)(=O)c1ccc(N2CCC(C3CCN(C(=O)[C@](O)(c4ccccc4)C(F)(F)F)CC3)CC2)cc1Cl` [Example D-5, (2R)-3-(1′-{3-chloro-4-[(1-methylethyl)sulfonyl]phenyl}-4,4′-bipiperidin-1-yl)-1,1,1-trifluoro-3-oxo-2-phenylpropan-2-ol]: 418 nM, 86%, 1520 nM and 28%.
On the same counts, the results for `CN(C)C(=O)c1ccc(N2CCC(C3CCN(C(=O)C(C)(C)c4ccc(Cl)cc4Cl)CC3)CC2)cc1Cl` [Example A-60, 2-chloro-4-{1′-[2-(2,4-dichlorophenyl)-2-methylpropanoyl]-4,4′-bipiperidin-1-yl}-N,N-dimethylbenzamide] are 33 nM, 109%, 717 nM and 32%.
The matching figures for `COc1cccc(C2(C(=O)N3CCC(C4CCN(c5ccc(C(=O)N(C)C)c(Cl)c5)CC4)CC3)CCC2)c1` [Example A-93, 2-chloro-4-(1′-{[1-(3-methoxyphenyl)cyclobutyl]carbonyl}-4,4′-bipiperidin-1-yl)-N,N-dimethylbenzamide]: 171 nM, 100%, 2270 nM and 22%.
For `COc1ccccc1C1(C(=O)N2CCC(C3CCN(c4ccc(C(=O)N(C)C)c(Cl)c4)CC3)CC2)CCC1` [Example A-87, 2-chloro-4-(1′-{[1-(2-methoxyphenyl)cyclobutyl]carbonyl}-4,4′-bipiperidin-1-yl)-N,N-dimethylbenzamide], in test [1], the EC50 was found to be 11 nM and the Emax came to 110%. Also, in test [2], the EC50 was found to be 499 nM and the Emax is 58%.
Consider `CN(C)C(=O)c1ccc(N2CCC(C3CCN(C(=O)C(c4ccccc4)C(F)(F)F)CC3)CC2)cc1Cl` (stereo not shown) [Example A-98, 2-chloro-N,N-dimethyl-4-[1′-(3,3,3-trifluoro-2-phenylpropanoyl)-4,4′-bipiperidin-1-yl]benzamide], for which, in test [1], the EC50 amounted to 324 nM and the Emax came to 92%. In test [2], the EC50 was found to be 4960 nM and the Emax turned out to be 33%.
On the same counts, the results for `CN(C)C(=O)c1ccc(N2CCC(C3CCN(C(=O)C(O)(c4ccccc4)C4CC4)CC3)CC2)cc1Cl` (stereo not shown) [Example A-52, 2-chloro-4-{1′-[cyclopropyl(hydroxy)phenylacetyl]-4,4′-bipiperidin-1-yl}-N,N-dimethylbenzamide] are 171 nM, 96%, 2070 nM and 22%.
Regarding `CN(C)C(=O)c1ccc(N2CCC(C3CCN(C(=O)C(O)(C(C)(C)C)C(F)(F)F)CC3)CC2)cc1Cl` (single isomer, unassigned) [Example A-6, 2-Chloro-4-(1′-(2-hydroxy-3,3-dimethyl-2-(trifluoromethyl)butanoyl)-[4,4′-bipiperidin]-1-yl)-N,N-dimethylbenzamide], in test [1], the EC50 is 24 nM and the Emax turned out to be 107%. For the same molecule, in test [2], the EC50 stood at 626 nM and the Emax amounted to 70%.
For the molecule `CNC(=O)c1ccc(N2CCC(C3CCN(C(=O)C(O)(C(C)C)C(F)(F)F)CC3)CC2)cc1Cl` (stereo not shown) [Example E-5, 2-chloro-4-{1′-[2-hydroxy-3-methyl-2-(trifluoromethyl)butanoyl]-4,4′-bipiperidin-1-yl}-N-methylbenzamide], in test [1], the EC50 worked out at 111 nM and the Emax stood at 123%. In test [2], the EC50 amounted to 1070 nM and the Emax stood at 56%.
As for `Cc1nc(N2CCC(C3CCN(C(=O)C(O)(C(C)C)C(F)(F)F)CC3)CC2)ccc1C(=O)N(C)C` (stereo not shown) [Example C-1, 6-(1′-(2-Hydroxy-3-methyl-2-(trifluoromethyl)butanoyl)-[4,4′-bipiperidin]-1-yl)-N,N,2-trimethylnicotinamide], in test [1], the EC50 turned out to be 148 nM and the Emax turned out to be 101%. For the same molecule, in test [2], the EC50 came out at 21 nM and the Emax was found to be 24%.
With `CN(C)C(=O)c1ccc(N2CCC(C3CCN(S(=O)(=O)c4c(Cl)cccc4Cl)CC3)CC2)cc1Cl` [Example A-104, 2-chloro-4-{1′-[(2,6-dichlorophenyl)sulfonyl]-4,4′-bipiperidin-1-yl}-N,N-dimethylbenzamide], the EC50 stood at 21 nM in test [1] and 2340 nM in test [2]. Further, the values for the Emax in test [1] and in test [2] were 129% and 67%, respectively.
On the same counts, the results for `CC(C)N(C)C(=O)c1ccc(N2CCC(C3CCN(C(=O)C(O)(C(C)C)C(F)(F)F)CC3)CC2)cc1Cl` (stereo not shown) [Example E-6, 2-chloro-4-{1′-[2-hydroxy-3-methyl-2-(trifluoromethyl)butanoyl]-4,4′-bipiperidin-1-yl}-N-methyl-N-(1-methylethyl)benzamide] are 111 nM, 761 nM, 101% and 53%.
As for `CC(C)C(O)(C(=O)N1CCC(C2CCN(c3ccc(C(=O)N(C)C)c(Cl)c3)CC2)CC1)C(C)C` [Example A-109, 2-chloro-4-{1′-[2-hydroxy-3-methyl-2-(1-methylethyl)butanoyl]-4,4′-bipiperidin-1-yl}-N,N-dimethylbenzamide], in test [1], the EC50 came to 61 nM and the Emax amounted to 98%. Further, in test [2], the EC50 was determined as 54200 nM and the Emax was 22%.
As to `CC1(C)CCN(C(=O)c2ccc(N3CCC(C4CCN(C(=O)[C@](O)(c5ccccc5)C(F)(F)F)CC4)CC3)cc2Cl)C1` [Example E-28, (2R)-3-(1′-{3-chloro-4-[(3,3-dimethylpyrrolidin-1-yl)carbonyl]phenyl}-4,4′-bipiperidin-1-yl)-1,1,1-trifluoro-3-oxo-2-phenylpropan-2-ol], in test [1], the EC50 came to 200 nM and the Emax is 57%. In test [2], the “LXR alpha IP (nM)” value is “NO IP” and the Emax came to 15%.
The matching figures for `CN(C)C(=O)c1ccc(N2CCC(C3CCN(c4ccccc4Cl)CC3)CC2)cc1Cl` [Example A-107, 2-chloro-4-[1′-(2-chlorophenyl)-4,4′-bipiperidin-1-yl]-N,N-dimethylbenzamide]: 825 nM, 62%, “NO IP” and 17%.
As for `COc1cccc(C(O)(C(=O)N2CCC(C3CCN(c4ccc(C(=O)N(C)C)c(Cl)c4)CC3)CC2)C(F)(F)C(F)(F)F)c1` (stereo not shown) [Example A-85, 2-chloro-N,N-dimethyl-4-{1′-[3,3,4,4,4-pentafluoro-2-hydroxy-2-(3-methoxyphenyl)butanoyl]-4,4′-bipiperidin-1-yl}benzamide], in test [1], the EC50 was found to be 180 nM and the “LXR beta act @ max dose (%)” value was determined as 115%. For the same molecule, in test [2], the EC50 worked out at 1120 nM and the “LXR alpha act @ max dose (%)” value was 41%.
Turning to `CN(C)C(=O)c1ccc(N2CCC(C3CCN(C(=O)c4ccccc4C(F)(F)F)CC3)CC2)cc1Cl` [Example A-21, 2-chloro-N,N-dimethyl-4-(1′-{[2-(trifluoromethyl)phenyl]carbonyl}-4,4′-bipiperidin-1-yl)benzamide], the EC50 in test [1] was 243 nM; in test [2], 3000 nM. Further, the Emax in test [1] came to 95%; in test [2], 37%.
